Laboratory results reported in patent US20210353633A1, “CYCLODEXTRIN-BASED FORMULATION OF A BCL-2 INHIBITOR” (LES LABORATOIRES SERVIER, priority 2018, published 2021).
≈ marks a conversion by molar mass, not a printed value.

Columns and labels:
[1] = Aqueous solubility of Compound A; type: physicochemical; settings: aqueous media, aqueous buffer; free base; across all pHs
Source text: In order to enable safe and effective administration of Compound A, and to elicit the required therapeutic effects, Compound A needs to be solubilized at higher concentration than its aqueous solubility.

[2] = Solubility test in various carriers (Example 1); type: physicochemical; settings: aqueous with cosolvent or surfactant or cyclodextrin, thermodynamic from solid; in the carriers permitting substantial solubilisation (cyclodextrins, PEG400, PEG400/EtOH/0.9% NaCl); read-out: solubilities after 24 hours' stirring
Experimental: The solubility of ‘Compound A, H2SO4’ was studied in various media, including: • citrate buffer (pH=2; 50 mM), acetate buffer (pH=4; 50 mM) and phosphate buffer (pH=6-7.4; 67.7 mM); • cyclodextrins of the type sulfobutyl ether β-cyclodextrin (SBE-β-cyclodextrin) or hydroxypropyl β-cyclodextrin (HP-β-cyclodextrin); more precisely, the SBE-β-cyclodextrin tested is Dexsolve™ marketed by Cyclolab, while the HP-β-cyclodextrins tested are Cavitron™ W7HP7 and Cavitron™ W7HP5 marketed by Wacker; Kleptose™ HP and Kleptose™ HPB marketed by Roquette; • surfactants such as polysorbate 80 and Kolliphor™ ELP; • the mixture PEG400/ethanol/0.9% NaCl (40/10/50).
5 g of the cyclodextrin studied (Dexsolve™, Cavitron™ W7HP7, Cavitron™ W7HP5, Kleptose™ HP or Kleptose™ HPB) are weighed into a […] graduated flask. Approximately 15 mL of water are added and the whole obtained is subjected to magnetic stirring. The volume is then made up to 25 mL by the addition of water. The whole is placed under magnetic stirring for 10 minutes.
1 g of the surfactant studied is weighed into a 50 mL graduated flask. The volume is then made up to 50 mL by means of 0.9% NaCl solution. The whole is placed under magnetic stirring for 1 hour.
20 mL of PEG 400, 5 mL of ethanol and 25 mL of NaCl are taken. The whole is placed in a 100 mL Erlenmeyer flask and stirred magnetically for 30 minutes.
Approximately 340 mg of ‘Compound A, H2SO4’ are weighed into a 5 mL tube. 3 mL of the medium containing the carrier to be tested are then added. The whole is then placed under magnetic stirring for 2 hours or 24 hours. The suspension or solution so obtained is passed through a 0.2 μm filter (PVDF membrane—Millipore) before being analysed by HPLC. In addition, the presence of degradation products of Compound A was investigated in the samples stored for 72 hours at ambient temperature.

[3] = Physical and chemical stability over time of solutions diluted in G5; type: physicochemical; settings: 12, 20 and 1000 mg/250 mL of G5
Experimental: Moreover, studies of physical stability over time (24 h, 48 h and 72 h) are carried out on the solutions obtained hereinbefore. In particular, these studies include the particle count of the tested solutions in accordance with the method described in the text of the European Pharmacopoeia 2.9.19. Tests 1.B (i.e. counting of the sub-visible particles by light obscuration).
Studies of chemical stability over time (24 h, 48 h and 72 h) are also put in place in order to ensure the stability of the product under laboratory light (1500 lux) and various heat conditions (ambient temperature, 5° C.). These studies include especially measurements of the amount of active ingredient and degradation products. Pharmaceutical compositions of Compound A solubilised by means of a Cavitron™ W7H5 solution diluted in G5 solution were tested for the following concentrations: 12 mg/250 mL, 20 mg/250 mL and 1000 mg/250 mL of G5 solution.

[4] = PK parameters in RS4;11 grafted female SCID mice; type: in vivo; settings: for Cmax: female, SCID, mouse, blood, iv
Experimental: RS4;11 cell line, obtained from ATCC, were subcutaneously injected into female SCID mice, provided by Charles River. When tumors reached the appropriate tumor volume, mice were randomized using Easy stat software. […]
In a 100 mL flask, introduce 20 g of Cavitron™ W7HP5 and add around 75 mL of a solution water/0.9% NaCl (70/30, v/v). Stir for 15 minutes at room temperature. Then, make up the solution to a volume of 100 mL by adding the previous solution water/0.9% NaCl, while maintaining magnetic stirring. Weigh the necessary amount of ‘Compound A, H2SO4’ and dissolve it with the previous 20% w/v Cavitron™ W7H5 solution. Heat the whole at 60° C. under vigorous magnetic stirring until solubilisation of the components of the mixture is complete. Measure the pH of the solution obtained. Adjust the pH to 3 by adding drop by drop, either HCl 0.1N or NaOH 0.1N, depending on the concentration of Compound A. Stir the mixture at least for 1 hour. Filtrate the obtained solution with a 0.2 μm-filter.
A 20% w/v Cavitron™ W7H5 solution containing a dose of 4 mg/mL of Compound A was prepared following this procedure. A second solution containing a dose of 1.5 mg/mL of Compound A was also prepared by diluting further the previous solution with the 20% w/v Cavitron™ W7H5 solution.

For `Cc1c(N(C(=O)c2cc(-c3cc(Cl)ccc3C(=O)N3Cc4ccccc4C[C@H]3CN3CCOCC3)n(C)c2C)c2ccc(O)cc2)cc(C#N)n1C` [Compound A, 5-(5-chloro-2-{[(3S)-3-(morpholin-4-ylmethyl)-3,4-dihydroisoquinolin-2(1H)-yl]carbonyl}phenyl)-N-(5-cyano-1,2-dimethyl-1H-pyrrol-3-yl)-N-(4-hydroxyphenyl)-1,2-dimethyl-1H-pyrrole-3-carboxamide], the solubility [1] was under 10 µg/mL, the solubility at 24 h [2] was 10000 to 30000 µg/mL (≈ 13.9 to 41.8 mM) and the chemical degradation product ([3]; laboratory light (1500 lux), ambient temperature and 5° C., during 72 h) was “No significant chemical degradation product was observed”. For the same molecule, the “rate of sub-visible particles (light obscuration method)” value ([3]; up to 72 h) was “in accordance with the requirement of the European Pharmacopoeia 2.9.19”, the exposure ([4]; 15 mg/kg i.v.) was 20463 ng·h/mL and the exposure ([4]; 40 mg/kg i.v.) was 46509 ng·h/mL. For the same molecule, the Cmax ([4]; 15 mg/kg i.v.) was 14700 ng/mL and the Cmax ([4]; 40 mg/kg i.v.) was 23300 ng/mL.
